In paper PMC5224920, “Assessing the mechanism and therapeutic potential of modulators of the human Mediator complex-associated protein kinases” (eLife, 2016):

Test system: 12 single or co-culture in vitro tissue models of primary cells
Assay: Culture/co-culture cell model panel, extracellular biomarkers (DiscoveRx); on CCL2/MCP-1: reference of the scale not given here; on CD38: reference of the scale not given here; on CD40: reference of the scale not given here; on CD69: reference of the scale not given here; on CXCL8/IL-8: reference of the scale not given here; on CXCL9/MIG: reference of the scale not given here; on IL-1alpha: reference of the scale not given here; on M-CSF: reference of the scale not given here; on PBMC Cytotoxicity: reference of the scale not given here
Assay type: cell-based, human
[1] = /Mphg Huvec+macrophages, 1.00E0 nM
[2] = /Mphg Huvec+macrophages, 1.00E1 nM
[3] = /Mphg Huvec+macrophages, 1.00E2 nM
[4] = /Mphg Huvec+macrophages, 1.00E3 nM
[5] = /Mphg Huvec+macrophages, 1.00E4 nM

Cn1ncc2cc(-c3cnc(N)c(Cl)c3N3CCC4(CCNC4=O)CC3)ccc21 [CMPD 3]
CCL2/MCP-1 (/HDFNo, 1.00E4 nM): 0.044
CD54/ICAM-1 (/HDFNo, 1.00E4 nM): -0.029
CD106/VCAM-1 (/HDFNo, 1.00E4 nM): 0.030
Collagen I (/HDFNo, 1.00E4 nM): 0.106
Collagen III (/HDFNo, 1.00E4 nM): 0.143
CCL2/MCP-1 [1]: 0.039
CCL3/MIP-1alpha [1]: 0.008
CD40 [1]: 0.007
CD69 [1]: 0.028
CD106/VCAM-1 [1]: 0.039
CXCL8/IL-8 [1]: 0.039
IL-1alpha [1]: 0.034
M-CSF [1]: -0.015
SRB [1]: -0.00253
SRB-Mphg [1]: 0.009
sIL-10 [1]: 0.013
CCL2/MCP-1 [2]: -0.0006
CCL3/MIP-1alpha [2]: -0.011
CD40 [2]: -0.026
CD69 [2]: 0.018
CD106/VCAM-1 [2]: 0.030
CXCL8/IL-8 [2]: -0.00563
IL-1alpha [2]: 0.012
M-CSF [2]: -0.035
SRB [2]: -0.012
SRB-Mphg [2]: 0.002
sIL-10 [2]: 0.075
CCL2/MCP-1 [3]: -0.061
CCL3/MIP-1alpha [3]: -0.020
CD40 [3]: 0.012
CD69 [3]: 0.043
CD106/VCAM-1 [3]: 0.019
CXCL8/IL-8 [3]: -0.007
IL-1alpha [3]: 0.025
M-CSF [3]: -0.036
SRB [3]: -0.017
SRB-Mphg [3]: 0.012
sIL-10 [3]: -8.75e-5
CCL2/MCP-1 [4]: -0.073
CCL3/MIP-1alpha [4]: -0.030
CD40 [4]: -0.015
CD69 [4]: 0.039
CD106/VCAM-1 [4]: -0.014
CXCL8/IL-8 [4]: -0.034
IL-1alpha [4]: -0.038
M-CSF [4]: -0.070
SRB [4]: -0.017
SRB-Mphg [4]: -0.00429
sIL-10 [4]: -0.159
CCL2/MCP-1 [5]: -0.116
CCL3/MIP-1alpha [5]: 0.039
CD40 [5]: -0.005
CD69 [5]: 0.023
CD106/VCAM-1 [5]: 0.022
CXCL8/IL-8 [5]: 0.007
IL-1alpha [5]: -0.039
M-CSF [5]: 0.009
SRB [5]: -0.059
SRB-Mphg [5]: -0.013
sIL-10 [5]: -0.238
CCL2/MCP-1 (/TH2, 1.00E0 nM): 0.045
CCL26/Eotaxin-3 (/TH2, 1.00E0 nM): -0.045
CD38 (/TH2, 1.00E0 nM): 0.012
CD40 (/TH2, 1.00E0 nM): -0.010
CD69 (/TH2, 1.00E0 nM): -0.0036
CD87/uPAR (/TH2, 1.00E0 nM): -0.045
CD106/VCAM-1 (/TH2, 1.00E0 nM): 0.030
CXCL8/IL-8 (/TH2, 1.00E0 nM): 0.048
CXCL9/MIG (/TH2, 1.00E0 nM): 0.020
Collagen IV (/TH2, 1.00E0 nM): 0.013
PBMC Cytotoxicity (/TH2, 1.00E0 nM): -0.00216
SRB (/TH2, 1.00E0 nM): -0.019
sIL-17A (/TH2, 1.00E0 nM): 0.036
sIL-17F (/TH2, 1.00E0 nM): -0.022
CCL2/MCP-1 (/TH2, 1.00E1 nM): 0.002
CCL26/Eotaxin-3 (/TH2, 1.00E1 nM): -0.124
CD38 (/TH2, 1.00E1 nM): -0.011
CD40 (/TH2, 1.00E1 nM): -0.078
CD69 (/TH2, 1.00E1 nM): -0.011
CD87/uPAR (/TH2, 1.00E1 nM): -0.094
CD106/VCAM-1 (/TH2, 1.00E1 nM): 0.034
CXCL8/IL-8 (/TH2, 1.00E1 nM): -0.056
CXCL9/MIG (/TH2, 1.00E1 nM): 0.00749
Collagen IV (/TH2, 1.00E1 nM): 0.029
PBMC Cytotoxicity (/TH2, 1.00E1 nM): -0.00148
SRB (/TH2, 1.00E1 nM): -0.057
sIL-17A (/TH2, 1.00E1 nM): 0.095
sIL-17F (/TH2, 1.00E1 nM): -0.033
CCL2/MCP-1 (/TH2, 1.00E2 nM): -0.036
CCL26/Eotaxin-3 (/TH2, 1.00E2 nM): -0.132
CD38 (/TH2, 1.00E2 nM): -0.00367
CD40 (/TH2, 1.00E2 nM): -0.095
CD69 (/TH2, 1.00E2 nM): -0.007
CD87/uPAR (/TH2, 1.00E2 nM): -0.133
CD106/VCAM-1 (/TH2, 1.00E2 nM): 0.023
CXCL8/IL-8 (/TH2, 1.00E2 nM): -0.038
CXCL9/MIG (/TH2, 1.00E2 nM): 0.008
